The target in data set [1] is HA H1 A/California/07/09 (Influenza A virus (A/California/07/2009(H1N1)), UniProt C3W5X2). In words: biochemical. Conditions: Competition binding (AlphaLISA), pIC50 H1 A/California/07/09. Background: Bead proximity is the source of the signal in Alpha formats.
The target of data set [2] is HA H1 A/New Caledonia/20/99 (Influenza A virus (A/New Caledonia/20/1999(H1N1)), UniProt Q6WG00). In words: biochemical. Conditions: Competition binding (AlphaLISA), pIC50 H1 A/New Caledonia/20/99.
In data set [3] the target is HA H5 A/Vietnam/1203/04 (Influenza A virus (A/Vietnam/1203/2004(H5N1)), UniProt Q5EP31). In words: biochemical. Conditions: Competition binding (AlphaLISA), pIC50 H5 A/Vietnam/1203/04.
A further data set deals with H1N1 A/California/07/09. In words: microbe, parasite or virus in culture. The format is cell-based, influenza A virus. Conditions: Influenza A virus, H1N1, MDCK, 96 h, read-out: Virus neutralization assay (VNA), pEC50 H1N1 A/California/07/09 (converted).
The test system of data set [4] is H1N1 A/New Caledonia/20/99. In words: microbe, parasite or virus in culture. Conditions: Influenza A virus, H1N1, MDCK, 96 h, read-out: Virus neutralization assay (VNA), pEC50 H1N1 A/New Caledonia/20/99 (converted). The format is cell-based, influenza A virus.
The next data set concerns H5N1 A/Vietnam/1203/04. In words: microbe, parasite or virus in culture. Conditions: Influenza A virus, H5N1, MDCK, 96 h, read-out: Virus neutralization assay (VNA), pEC50 H5N1 A/Vietnam/1203/04, MDCK cells, 96 h, CPE by ATPlite (converted); average of repeats. It is filed as cell-based, influenza A virus. In general terms: ATP-based viability assays read luminescence as a measure of living cells.

A further data set is described as follows: in vitro. Conditions: dog, Cytotoxicity (pCC50) MDCK.

As usually defined, the IC50 is the concentration that gives 50% inhibition. A lower IC50 goes with greater potency. For orientation: CC50 means the concentration giving 50% cytotoxicity. Low values mean harm at low concentration, high ones better tolerance by the cells. For `COCCNC(=O)C(c1ccccc1)N1CCN(C(=O)c2cccc(-c3nc4ccc(OC)cc4s3)c2)CC1` (stereo not shown) [Example 97], the figures for the IC50 in data set [1], in data set [2] and in data set [3] were 100 nM, 79.4 nM and 631 nM, respectively. Moreover, the EC50 in the data set on H1N1 A/California/07/09 is 1000 nM; in data set [4], 1000 nM; with H5N1 A/Vietnam/1203/04, 3980 nM. For the same compound, the CC50 in the data set “in vitro” is 10000 nM.
`COc1ccc2nc(-c3cccc(C(=O)N4CCN(C(c5ccccc5)c5noc(C)n5)CC4)c3)sc2c1` (stereo not shown) [Example 98]: the values for the IC50 in data set [1], in data set [2] and in data set [3] were 251 nM, 126 nM and 2510 nM, respectively. Also, the EC50 in the data set on H1N1 A/California/07/09 is 1260 nM; in data set [4] it was 1000 nM; in the data set on H5N1 A/Vietnam/1203/04 it was 12600 nM. In the data set “in vitro”, this compound gave a CC50 of 12600 nM.
As for `COCC(c1ccccc1)N1CCN(C(=O)c2cccc(-c3nc4ccc(OC)cc4s3)c2)CC1` (stereo not shown) [Example 99], the IC50 in data set [1] is 251 nM; in data set [2] it was 158 nM; in data set [3] it was 1260 nM. Further, the EC50 is 1580 nM in the data set with H1N1 A/California/07/09, 1000 nM in data set [4] and > 50100 nM with H5N1 A/Vietnam/1203/04. The CC50 in “in vitro” is > 50100 nM.
`COC(=O)[C@H](c1ccccc1)N1CCN(C(=O)c2cccc(-c3nc4cc(OC)ccc4o3)c2)CC1` [Example 100]: the IC50 in data set [1] was 501 nM; in data set [2], 316 nM; in data set [3] it was 25100 nM. Further, the EC50 in the data set on H1N1 A/California/07/09 was 2000 nM; in data set [4] it was 1000 nM; with H5N1 A/Vietnam/1203/04, 25100 nM. Also, the CC50 in the data set “in vitro” was > 50100 nM.
For the compound `Cc1nnc(C(c2ccccc2)N2CCN(C(=O)c3cccc(-c4nc5ccncc5o4)c3)CC2)o1` (stereo not shown) [Example 102], the IC50 in data set [1] was 200 nM; in data set [2], 251 nM; in data set [3], 12600 nM. In addition, the EC50 is 2000 nM in the data set on H1N1 A/California/07/09, 1000 nM in data set [4] and > 50100 nM in the data set with H5N1 A/Vietnam/1203/04. For the same compound, the CC50 in “in vitro” is > 50100 nM.
Turning to `CNC(=O)C(c1ccccc1)N1CCN(C(=O)c2cccc(-c3nc4ccc(OC)cc4s3)c2)CC1` (stereo not shown) [Example 103], the IC50 is 200 nM in data set [1], 126 nM in data set [2] and 1000 nM in data set [3]. In addition, the EC50 in the data set on H1N1 A/California/07/09 was 2510 nM; in data set [4], 1000 nM; in the data set on H5N1 A/Vietnam/1203/04, 15800 nM. Moreover, the CC50 in the data set “in vitro” was 31600 nM.
For the compound `CCCNC(=O)C(c1ccccc1)N1CCN(C(=O)c2cccc(-c3nc4ccc(OC)cc4s3)c2)CC1` (stereo not shown) [Example 104], the IC50 in data set [1] was 251 nM; in data set [2], 200 nM; in data set [3], 2000 nM. The EC50 in the data set with H1N1 A/California/07/09 was 2510 nM; in data set [4], 1000 nM; in the data set with H5N1 A/Vietnam/1203/04, 10000 nM. Also, the midpoint of cytotoxicity in the data set “in vitro”, the CC50, lay at 7940 nM.
As for `O=C(c1cccc(-c2nc3cc(C(F)(F)F)ccc3o2)c1)N1CCN(C(c2ccccc2)c2nnco2)CC1` (stereo not shown) [Example 107], the IC50 is 398 nM in data set [1], 251 nM in data set [2] and 20000 nM in data set [3]. The values for the EC50 (with H1N1 A/California/07/09; in data set [4]; with H5N1 A/Vietnam/1203/04) were 3160 nM, 1000 nM and > 50100 nM, respectively. Also, in the data set “in vitro”, the CC50 is > 50100 nM.
Consider `COc1ccc2nc(-c3cccc(C(=O)N4CCN(C(Cc5nnco5)c5ccccc5)CC4)c3)sc2c1` (stereo not shown) [Example 108], for which the results for the IC50 in data set [1], in data set [2] and in data set [3] were 1580 nM, 501 nM and 25100 nM, respectively. The EC50 is 5010 nM in the data set with H1N1 A/California/07/09, 1000 nM in data set [4] and > 50100 nM in the data set on H5N1 A/Vietnam/1203/04. The CC50 in the data set “in vitro” was > 50100 nM.
With `CCc1nnc(C(c2ccccc2)N2CCN(C(=O)c3cccc(-c4nc5cc(C(F)(F)F)ccc5o4)c3)CC2)o1` (stereo not shown) [Example 109], the figures for the IC50 in data set [1], in data set [2] and in data set [3] were 79.4 nM, 158 nM and 3980 nM, respectively. For the same compound, the EC50 in the data set on H1N1 A/California/07/09 is 501 nM; in data set [4], 1260 nM; in the data set with H5N1 A/Vietnam/1203/04 it was 25100 nM. The compound further showed a CC50 in “in vitro” of 10000 nM.

The record behind these values is patent US11040963B2 (priority 2017, dated 2021).
